Legend:
[1] = tested on: Parental DLD-1 colorectal cancer cells; test: Western blot (Jess) of WEE1, pCDK1, replication stress, DNA damage and apoptosis markers after Azenosertib treatment, parental cells; assay type: cell-based
Experimental: (§1) FIG. 8 is a Western Blot image showing levels of FBXW7, WEE1 kinase, Cyclin E1, and other replication stress, DNA damage, apoptosis markers in DLD-1 parental and DLD-1 FBXW7-knockout colorectal cancer cells treated with DMSO (negative control) and 250 nM, 1 μM, and 10 µM of Azenosertib for 8 hours, 24 hours, or 48 hours.
(§2) Parental DLD-1 colorectal cancer cells or FBXW7 knockout (FBXW7-KO) DLD-1 cells (Creative Biogene, Cat No. CSC-RT0018, Lot No. 081723ZYX) were cultured in RPMI 1640 medium (ATCC modification) (Giboco) supplemented with 10% FBS (Gibco) and 1% penicillin-streptomycin (Gibco). Cells were maintained at 37° C. in an atmosphere containing 5% CO2.
(§3) The cultured cells were seeded at optimal density in 6-well plates, allowed to adhere overnight, and then treated with Azenosertib (250 nM, 1 μM, or 10 μM), with DMSO treatment as a negative control. After 8, 24, and 48 hours of drug exposure, cells were harvested, rinsed with PBS, lysed with cold RIPA buffer (Sigma) containing protease and phosphatase inhibitors for 15 minutes, and centrifuged at 4° C., 15,000 rpm for 15 minutes. Protein concentrations were measured using the Pierce BCA Protein Assay kit (Thermo Fisher). Jess™ plates were loaded and run according to the manufacturer's instructions (Bio-Techne). Primary antibodies anti-FBXW7 and anti-Cyclin E1 were purchased from Abcam, anti-phospho-H3, anti-Vinculin, anti-γH2AX, anti-phospho-CDK1, anti-phsopho-Chk1, anti-cleaved caspase 3, anti-Wee1, and anti-CDK1 were purchased from Cell Signaling Technology.

[2] = tested on: solid tumor patients (HGSOC, USC, endometrial, colorectal, peritoneum cancer), FBXW7-mutated or wild-type; test: Clinical outcome of Azenosertib monotherapy by FBXW7 mutational status (composite cohort of 356 patients); assay type: in vivo, human; conditions: daily dose at least 300 mg; for Objective Response Rate (ORR): continuous or intermittent schedule, p<0.02, FIG. 9A; for target lesion size reduction (median): p<0.05, FIG. 9B
Experimental: FIG. 9B is a waterfall plot of the tumor size change in FBXW7-mutated or wild-type human subjects.
The predictive value of FBXW7 was investigated in a composite cohort of 356 patients treated with a daily dose of at least 300 mg of Azenosertib monotherapy on a continuous dosing schedule or an intermittent dosing schedule (e.g., 5 days on/2 days off, 4 days on/3 days off) and profiled with high-throughput DNA sequencing. Specifically, this composite cohort of patients was treated with a daily dose of 300 mg, or 350 mg, or 400 mg, or 450 mg of Azenosertib monotherapy on a continuous dosing schedule (i.e., QD, 7 days a week without any intermission), a daily dose of 300 mg, or 350 mg, or 400 mg, or 450 mg, or of 500 mg of Azenosertib monotherapy on an intermittent 5 days on/2 days off or 4 days on/3 days off schedule). The source of mutational status was a combination of local (reports from clinical sites) or central testing from either tumor or cell-free DNA. The mutational status was determined as mutated when at least one of the reports reported a pathogenic mutation and unmutated (wild-type) when all reports covering the FBXW7 gene were negative. The cohort investigated consists of patients diagnosed with high-grade serous ovarian carcinoma or HGSOC (N=211), uterine serous carcinoma or USC (N=57) or other solid tumor cancers including endometrial cancer, colorectal cancer, and peritoneum cancer […]. The patients mutated for FBXW7 (N=17-including […], 7 USC, 2 endometrial and 3 colorectal), were more likely to respond to Azenosertib monotherapy (Objective Response Rate or ORR=41% (7/17) for FBXW7-mutated patients vs. 16% (53/339) for FBXW7-wild-type patients; p<0.02—FIG. 9A [BOR=Best Overall Response; CR=Complete Response; PR—Partial Response; uPR=Unconfirmed Partial Response; SD=Stable Disease; PD=Progressive Disease).

[3] = tested on: FBXW7 knockout (FBXW7-KO) DLD-1 cells; test: Western blot (Jess) of WEE1, pCDK1, replication stress, DNA damage and apoptosis markers after Azenosertib treatment, FBXW7 knockout cells; assay type: cell-based
Experimental: as §1, §2, §3

[4] = 250 nM, 1 μM, 10 μM, 8, 24, 48 hours, vs DMSO, FIG. 8
[5] = FBXW7-KO DLD-1, 250 nM, 1 μM, 10 μM, 8, 24, 48 hours, vs DMSO, FIG. 8
[6] = FBXW7-KO DLD-1, 10 μM, more significant DNA damage compared to parental cell line

Q: How did the WEE1 levels [1, 4] turn out when C=CCn1c(=O)c2cnc(Nc3ccc(N4CCN(C)CC4)cc3)nc2n1-c1ccc2c(n1)[C@@](O)(CC)CC2 [Azenosertib] was run?
A: The WEE1 levels was “dose-dependent decrease”.

Q: What about the “phospho-CDK1 (pCDK1) levels” value [1, 4] of the same molecule?
A: The value was “dose-dependent decrease”.

Q: And the pCDK1 level ([1]; 10 μM, 48 hours)?
A: The pCDK1 level was “decreasing significantly”.

Q: And the “Objective Response Rate (ORR)” value ([2]; FBXW7-mutated patients (7/17))?
A: Its value is 41%.

Q: What about the “target lesion size reduction (median)” value ([2]; FBXW7-mutated patients) of the same molecule?
A: The value was −41%.

Q: What about the “Objective Response Rate (ORR)” value ([2]; FBXW7-wild-type patients (53/339)) of the same molecule?
A: Its value is 16%.

Q: And the “target lesion size reduction (median)” value ([2]; second-named group, FBXW7-wild-type patients)?
A: Its value is −8%.

Q: And the WEE1 levels [3, 5]?
A: The WEE1 levels was “dose-dependent decrease”.

Q: And the “phospho-CDK1 (pCDK1) levels” value [3, 5]?
A: Its value is “dose-dependent decrease”.

Q: What about the pCDK1 level ([3]; FBXW7-KO DLD-1, 10 μM, 48 hours) of the same molecule?
A: The pCDK1 level was “decreasing significantly”.

Q: And the “gamma-H2AX (γH2AX) levels (DNA damage)” value [3, 6]?
A: The value was “increase”.

Q: What about the “phospho-Chk1 (pChk1) levels (DNA damage)” value [3, 6] of the same molecule?
A: Its value is “increase”.

Q: And the “cleaved caspase 3 levels (apoptosis)” value ([3]; FBXW7-KO DLD-1, e.g. 10 µM at 24 hours and 48 hours, compared to parental cell line)?
A: The value was “increase”.

Q: And the “sensitivity to treatment with Azenosertib” value ([3]; FBXW7-KO cells compared to the parental cell line)?
A: The value was “more sensitive”.
